Reference: patent US20060276407A1, “Methods of treating hepatitis C virus” (Schering Corporation, priority 2005, published 2006)
Values joined by “and” are separate entries in the source; they are usually repeats but may differ in a detail not shown here. Equal values may be shown once. Read-outs that look alike come from different tables or passages of the source.

Test: Food-effect crossover bioavailability study, 600 mg fed vs fasted, healthy adult subjects (Example 2)
Type: in vivo, human
Details: for Plasma concentration at 8 hours / Plasma concentration at 12 hours: individual subjects; for concentration at 8 hours / concentration at 12 hours / Vd/F / AUC / Cmax / half-life / Tmax: both sexes, human, plasma, po, 600 mg; for half-life: read-out: t½ (converted); for Tmax: median (range)
Procedure: This was a randomized, open-label, single-dose, two-treatment (fed or fasted), two-period, two-sequence crossover study of the effect of food on the bioavailability of compound of Formula Ia in 23 healthy adult male and female subjects. The primary pharmacokinetic parameters were AUC(l) and Cmax for compound of Formula Ia. The study included a 7-day wash-out period between treatment periods.
Subjects were confined at the study site at least 14 hours prior to each treatment (Day −1). On the morning of Day 1, following a 10-hour overnight fast, subjects were randomized to receive in a particular order Treatment A and Treatment B: • Treatment A: compound of Formula Ia 600 mg (6×100 mg capsules) PO following an overnight fast. • Treatment B: compound of Formula Ia 600 mg (6×100 mg capsules) PO within 20 minutes following the completion of a standard high-fat breakfast. There was a 7-day wash-out period between receiving treatments.
Subjects receiving Treatment A received a formulation of compound of Formula Ia comprised of compound of Formula Ia and a pharmaceutically acceptable carrier, such as microcrystalline cellulose, while continuing to fast, while subjects randomized to Treatment B consumed a standardized high-fat meal prior to compound administration (within 20 minutes prior to the compound administration). The capsules along with approximately 240 mL of water were swallowed whole, not chewed or crushed. […] Water was permitted as desired except for 1 hour before and after compound administration. A washout period of at least 7 days separated the two treatment periods. Upon return to the clinic, subjects underwent the same procedures as the first period and continued the randomization sequence (subjects who received compound of Formula Ia fasted in Period 1 and then received compound of Formula Ia under fed conditions in Period 2, and vice versa).
Blood samples (7 mL each) for the determination of compound of Formula Ia levels were drawn immediately prior to dosing (0 hour), and at 0.5, 1, 1.5, 2, 2.5, 3, 4, 5, 6, 8, 12, 24, 36, and 48 hours after dosing. The blood samples were collected into tubes containing EDTA. The samples were centrifuged at 1500 g for 10 minutes to obtain plasma and the plasma samples were frozen at −20° C. and maintained in the frozen state until assayed.
Plasma concentrations of compound of Formula Ia were determined using a validated liquid chromatography tandem mass spectrometry (LC-MS/MS) method. The assay lower limit of quantitation (LLOQ) was 0.50 ng/mL and the method was validated over the concentration range of 0.50 to 1000 ng/mL.
The mean and percent coefficient of variation (% CV) were calculated for plasma concentrations of compound of Formula Ia at each time point. Concentration values less than the assay LLOQ were reported as, and set to zero in the tables and calculations. The plasma concentration-time data for compound of Formula Ia were subjected to pharmacokinetic analysis by noncompartmental methods using WinNonlin software. Nominal sampling times were used for pharmacokinetic analysis, since none of the pharmacokinetic sampling time deviations were >10% of the nominal times. For each subject, the following pharmacokinetic parameters were determined for compound of Formula Ia: maximum plasma concentration (Cmax), time of maximum observed plasma concentration (Tmax), the final quantifiable sampling time (tf), area under the plasma concentration-time curve from time 0 to tf (AUC[tf]), AUC(l) (AUC[tf]+ C[tf]estimated/K) and Vd/F. The K and C(tf)estimated are defined as terminal elimination rate constant and estimated concentration at final quantifiable sample, respectively. Terminal phase half-life (t½=ln 2/K) and apparent clearance (CLUF=Dose/AUC[l]) were also determined. Cmax, Tmax and tf were the observed values. […]

[1] = 600 mg PO, fasted, mean, balanced data
[2] = 600 mg PO, fed (high-fat breakfast), mean, balanced data
[3] = 600 mg PO, standardized high-fat meal

CC(C)(C)NC(=O)N[C@H](C(=O)N1C[C@H]2[C@@H]([C@H]1C(=O)NC(CC1CCC1)C(=O)C(N)=O)C2(C)C)C(C)(C)C (mixture of isomers) [Formula Ia, (1 R, 5S)-N-[3-Amino-1-(Cyclobutylmethyl)-2,3-Dioxopropyl]-3-[2(S)-[[[(1,1-Dimethylethyl)Amino]Carbonyl]Amino]-3,3-Dimethyl-1-Oxobutyl]-6,6-Dimethyl-3-Azabicyclo[3.1.0]Hexan-2(S)-Carboxamide]
Apparent mean Vd/F, fed versus fasted states (600 mg PO): about five | Median concentration at the 8-hour time point, fed state relative to fasted state (600 mg PO): more than 4 fold | Median concentration at the 12-hour time point, increase in fed state relative to fasted state (600 mg PO): 2 fold | AUC(l) Ratio Estimate (fed to fasted) (600 mg PO, Female (n = 10)): 225% | AUC(tf) Ratio Estimate (fed to fasted) (600 mg PO, Female (n = 10)): 229% | Cmax Ratio Estimate (fed to fasted) (600 mg PO, Female (n = 10)): 170% | AUC(l) Ratio Estimate (fed to fasted) (600 mg PO, Male (n = 10)): 202% | AUC(tf) Ratio Estimate (fed to fasted) (600 mg PO, Male (n = 10)): 205% | Cmax Ratio Estimate (fed to fasted) (600 mg PO, Male (n = 10)): 155% | Plasma concentration at 8 hours (600 mg PO, fasted): 37.5 ng/mL and 18.7 ng/mL and 37.4 ng/mL and 13.4 ng/mL and 77.9 ng/mL and 39.0 ng/mL and 46.6 ng/mL and 50.0 ng/mL and 66.8 ng/mL and 19.3 ng/mL and 8.50 ng/mL and 27.3 ng/mL and 24.8 ng/mL and 24.1 ng/mL and 81.3 ng/mL and 58.0 ng/mL and 33.5 ng/mL and 28.7 ng/mL and 27.8 ng/mL | Plasma concentration at 12 hours (600 mg PO, fasted): 20.9 ng/mL and 8.12 ng/mL and 27.0 ng/mL and 4.90 ng/mL and 21.3 ng/mL and 16.3 ng/mL and 18.3 ng/mL and 20.6 ng/mL and 11.4 ng/mL and 4.46 ng/mL and 3.11 ng/mL and 13.2 ng/mL and 9.56 ng/mL and 19.6 ng/mL and 26.6 ng/mL and 14.3 ng/mL and 9.33 ng/mL and 9.50 ng/mL and 10.7 ng/mL | CL/F [1]: 393 L/h | CL/F [2]: 179 L/h | Plasma concentration at 8 hours (600 mg PO, fed): 33.8 ng/mL and 62.2 ng/mL and 190 ng/mL and 92.4 ng/mL and 442 ng/mL and 81.4 ng/mL and 54.3 ng/mL and 675 ng/mL and 392 ng/mL and 949 ng/mL and 46.1 ng/mL and 426 ng/mL and 283 ng/mL and 55.6 ng/mL and 164 ng/mL and 612 ng/mL and 54.8 ng/mL and 447 ng/mL and 33.6 ng/mL | Plasma concentration at 12 hours (600 mg PO, fed): 7.34 ng/mL and 11.2 ng/mL and 27.8 ng/mL and 13.6 ng/mL and 37.2 ng/mL and 13.9 ng/mL and 33.5 ng/mL and 384 ng/mL and 184 ng/mL and 54.2 ng/mL and 6.70 ng/mL and 22.2 ng/mL and 140 ng/mL and 10.4 ng/mL and 87.3 ng/mL and 109 ng/mL and 9.17 ng/mL and 48.8 ng/mL and 7.09 ng/mL | AUC(l) Ratio Estimate (fed to fasted) (600 mg PO, n = 20): 214% | AUC(tf) Ratio Estimate (fed to fasted) (600 mg PO, n = 20): 217% | Cmax Ratio Estimate (fed to fasted) (600 mg PO, n = 20): 162% | Increase of Cmax in the fed state [3]: 62% | Increase of mean relative bioavailability (AUC) in the fed state relative to fasted [3]: over 100% | Safety profile (treatment emergent and treatment related AEs) (600 mg oral dose, both fed and fasted states): low frequency of treatment emergent and treatment related AEs | concentration at 8 hours (600 mg PO, fasted, Max): 81.3 ng/mL | concentration at 12 hours (600 mg PO, fasted, Max): 27 ng/mL | concentration at 8 hours (600 mg PO, fasted, Min): 8.5 ng/mL | concentration at 12 hours (600 mg PO, fasted, Min): 3.11 ng/mL | concentration at 8 hours (600 mg PO, fasted, mean): 37.9 ng/mL | concentration at 12 hours (600 mg PO, fasted, mean): 14.2 ng/mL | Vd/F [1]: 6730 L | AUC (600 mg PO, fasted, mean, balanced data, read-out: AUC(l)): 1750 ng·h/mL | AUC (600 mg PO, fasted, mean, balanced data, read-out: AUC(tf)): 1720 ng·h/mL | Cmax (600 mg PO, fasted, mean, balanced data, read-out: Cmax): 448 ng/mL | half-life [1]: 12 h | concentration at 8 hours (600 mg PO, fasted, median): 33.5 ng/mL | concentration at 12 hours (600 mg PO, fasted, median): 13.2 ng/mL | Tmax (600 mg PO, fasted, balanced data): 2 h | AUC (600 mg PO, fasted, n = 20, read-out: AUC(l), model-based (least square) mean): 1650 ng·h/mL | AUC (600 mg PO, fasted, n = 20, read-out: AUC(tf), model-based (least square) mean): 1620 ng·h/mL | Cmax (600 mg PO, fasted, n = 20, read-out: Cmax, model-based (least square) mean): 418 ng/mL | Vd/F [2]: 1150 L | AUC (600 mg PO, fed (high-fat breakfast), mean, balanced data, read-out: AUC(l)): 3700 ng·h/mL | AUC (600 mg PO, fed (high-fat breakfast), mean, balanced data, read-out: AUC(tf)): 3660 ng·h/mL | Cmax (600 mg PO, fed (high-fat breakfast), mean, balanced data, read-out: Cmax): 790 ng/mL | half-life [2]: 4.72 h | Tmax (600 mg PO, fed (high-fat breakfast), balanced data): 5 h | concentration at 8 hours (600 mg PO, fed, Max): 949 ng/mL | concentration at 12 hours (600 mg PO, fed, Max): 384 ng/mL | concentration at 8 hours (600 mg PO, fed, Min): 33.6 ng/mL | concentration at 12 hours (600 mg PO, fed, Min): 6.7 ng/mL | concentration at 8 hours (600 mg PO, fed, mean): 268 ng/mL | concentration at 12 hours (600 mg PO, fed, mean): 63.5 ng/mL | concentration at 8 hours (600 mg PO, fed, median): 164 ng/mL | concentration at 12 hours (600 mg PO, fed, median): 27.8 ng/mL | AUC (600 mg PO, fed, n = 20, read-out: AUC(l), model-based (least square) mean): 3530 ng·h/mL | AUC (600 mg PO, fed, n = 20, read-out: AUC(tf), model-based (least square) mean): 3500 ng·h/mL | Cmax (600 mg PO, fed, n = 20, read-out: Cmax, model-based (least square) mean): 678 ng/mL
